This note sets out measurements from US8993257B2, “System and method for studying epidermis samples ex vivo” (University of Rochester, priority 2012, dated 2015).

The subject of assay [1] is intact human epidermis samples. Conditions: Histamine 100 μM; evaluated at 10, 20 and 30 minutes; epidermis isolated with dispase; FIG. 5.
From the text: The invention will allow measuring epidermal barrier integrity by evaluating transepithelial electric resistance (TEER), using a planar electrode (for example, Endohm-Snap; World Precision Instruments, Sarasota, Fla., USA), and a paracellular flux assay of for example, fluorescently labeled probes of different radii and sizes. Probes can be added to the upper well, and samples will be collected in the lower well over time to determine the paracellular flux. The amount of fluorescent probes that diffuse across the epidermis sample can be measured using an appropriate fluorometer or spectrophotometer.
The filter 206 of the original detachable ring 204 in the Snapwell™ (Corning, 3407) is replaced by a sandwich system 302 having two Plexiglas (or any other suitable material) inserts 304, with the epidermis/skin sample 306 lying in between them on a filter paper 308 (Nucleopore Track-etched, #110407; 13 mm diameter & pore: 0.4 μm) so that it covers the opening. The skin sample 306 is inserted with epidermis side up. Each of the inserts 304 has a hole 310 formed therein with a diameter of 0.3 cm and an area of 0.0707 cm^2. As in the conventional Snapwell™ system, the sandwich system is 302 is placed between an upper well 312 having a medium 314 and a lower well 316 having a medium 318. A volt-ohm meter 320 is connected between the two media. […]
Assay [2] deals with barrier-disrupted human epidermis. Put plainly: TEER of tape stripped (barrier-disrupted) human epidermis in the system. The conditions noted are these: compared with media alone. It counts as cell-based. On the procedure: (§1) The Weck blade is held at a 30-45° angle from the donor skin (e.g. living subject or discarded skins from plastic surgery procedures) surface, while a gentle traction behind the blade is provided by the other hand. Using different depths (e.g. […]), based on the skin sample source (e.g. based on differences in epidermal depth in different anatomical areas as well as species-specific differences), we can effectively isolate intact, full thickness epidermal samples with minimal to no dermis (e.g. subepithelial tissue). The epidermis is removed using that Weck surgical blade, cut into smaller samples to fit the apparatus and placed in a calcium-containing buffer until it is mounted in the device.
(§2) We have also used the invention to test the effect of cytokines relevant to human disease on epidermal barrier function recovery. Human discarded skin was tape stripped to induce a barrier impairment, this barrier-disrupted epidermis was isolated using the Weck blade and placed into the system. Samples were than treated for 24 h with human recombinant IL17A, a prototypic cytokine commonly found within the skin lesions of psoriasis (FIG. 6) or the Th2 cytokines, IL4 and IL13, commonly found in atopic dermatitis (FIG. 7). After 24 h treatment with human recombinant IL17A (50 and 100 ng/ml), TEER was increased, and paracellular flux was reduced as compared with a sample treated with media alone. Those data indicated IL17A enhanced epidermal barrier recovery.

The test system is the same in assay [3]. Put plainly: Paracellular flux across tape stripped (barrier-disrupted) human epidermis in the system. The format is cell-based. Conditions: compared with media alone. On the procedure:
as §1, §2

For assay [4], the system named is murine skin samples (wild type and STAT6 mice). Put plainly: Skin barrier recovery after in vivo tape stripping, murine skin samples mounted in the system. Conditions: Pam3CSK4 10 μM; wild type versus STAT6 mice, n=3 each; normalized to WT vehicle control; FIG. 8. It counts as cell-based. The protocol:
For very thin skin samples isolated from rodents or other small mammalians, curettage along the dermal surface of the biopsy can be performed with a blade to minimize the amount of dermis taken. Alternatively, skin can be incubated in ammonium thiocyanate and epidermis removed from dermis. Murine skin can be isolated from any anatomical area, defatted using a surgical blade, cut into smaller samples to mount in the apparatus.
We have also used the present invention in a murine model. Skin barrier recovery after in vivo tape stripping was evaluated in wild type mice as compared to genetically modified mice that expressed a constitutively activated form of STAT6 under the CD2 locus, that results in the enhanced expression of Th2 cytokines (IL-4 and IL-13). Skin samples were collected from the healthy, nonperturbed skin of the back or from an area of the back that underwent tape stripping. The dermis was removed by scraping with a surgical blade and skin samples were mounted in the system. We observed no differences in recovery between the two mice strains. […] All data are normalized to WT vehicle control group. In FIG. 8, ns: not significant; *P<0.05, **P<0.01, ***P<0.001. (WT, n=3; STAT6VT, n=3).

The mark [5] stands for this setting: IL4 (50 ng/ml) and IL13 (50 ng/ml) given together, FIG. 7.
The mark [6] stands for this setting: IL17A 50 and 100 ng/ml, 24 h treatment, FIG. 6.

In the case of `NCCc1c[nH]cn1` [Histamine], the “paracellular flux of fluorescein” value in assay [1] was “enhanced”.
On to “IL13: human recombinant IL13, Th2 cytokine commonly found in atopic dermatitis”, for which the TEER result in assay [2] (setting [5]) was “reduced”. For the same molecule, the paracellular flux entry in assay [3] (setting [5]) was “increased”.
As to “IL17A: human recombinant IL17A, a prototypic cytokine commonly found within the skin lesions of psoriasis”, the TEER result in assay [2] (setting [6]) was “increased”. Further, the paracellular flux result in assay [3] (setting [6]) is given as “reduced”.
Pam3CSK4: the skin barrier recovery entry in assay [4] was “greater recovery in wild type mice”.

B1: IL4: human recombinant IL4, Th2 cytokine commonly found in atopic dermatitis (protein, UniProt P05112 25-153, looked up)
Interleukin-4: HKCDITLQEIIKTLNSLTEQKTLCTELTVTDIFAASKNTTEKETFCRAATVLRQFYSHHEKDTRCLGATAQQFHRHKQLIRFLKRLDRNLWGLAGLNSCPVKEANQSTLENFLERLKTIMREKYSKCSS
As to B1, the TEER result in assay [2] (setting [5]) is given as “reduced”. In addition, the paracellular flux result in assay [3] (setting [5]) is given as “increased”.
